{"source": "patent US20250215397A1", "about": "“TWO-DIMENSIONAL CULTURE METHOD HAVING CLEAR CHEMICAL COMPOSITION FOR CULTURING THREE-DIMENSIONAL INTESTINAL ORGANOID-DERIVED INTESTINAL STEM CELL AGGREGATE” (KOREA RESEARCH INSTITUTE OF BIOSCIENCE AND BIOTECHNOLOGY, priority 2022, published 2025)", "format_in_all_cases": "cell-based, human", "key": {"[1]": {"tested_on": "two-dimensional intestinal stem cell population", "assay": "Subculture of two-dimensional intestinal stem cells, engraftment / cell number", "settings": "for need for long-term subculturing: factor removed from culture medium, subculture, FIG. 12; for subculture efficiency: added during subculture; for subculture efficiency / cell engraftment during subculture: FIG. 13; for cell engraftment during subculture: treatment during subculture", "method": "(§1) The three-dimensional intestinal organoids were isolated from a Matrigel dome and the remaining three-dimensional intestinal organoids were removed as much as possible by pipetting. The separated organoids were placed in 1 ml of 0.25% trypsin-EDTA (TE, Invitrogen) and incubated at 37° C. a water bath for about 5 minutes. Then, pipetting was performed less than five times so that the organoids were allowed to be isolated into single cells and small clumps, and a basal medium was added so that the total volume thereof was 10 ml. The cells fed into a centrifuge were placed on culture dishes coated with feeder cells or 1% of Matrigel (Corning). Thereafter, 200 ng/ml of R-spondin 1 (R&D Systems), 100 ng/ml of EGF (R&D Systems), and 2.5 μM of Postaglandin E2 (Sigma-aldrich) were used as main components, cultured in an intestinal stem cell culture medium (2 mM of L-glutamine, 1% of Penicillin-Streptomycin, and 15 mM of HEPES buffer in Advanced DMEM F12) comprising, as an auxiliary component, one or more selected from the group consisting of 1×B27 (Invitrogen), 80 ng/ml of Noggin (R&D Systems), 10 nM of [Leu15]-Gastrin I (Sigma-aldrich), 100 ng/ml of human recombinant WNT3A (R&D Systems), 500 nM of A-83-01 (Tocris), 10 μM of SB202190 (Sigma-aldrich), 1 mM of N-acetylcysteine (Sigma-aldrich), and 10 mM of nicotinamide (Sigma-aldrich), and subcultured every 7 to 10 days. During the first 2 days of subculture, 1 μM of Jagged-1 (Anaspec) and/or 2.5 μM of Y-27632 (Tocirs) were added to the intestinal stem cell culture medium.\n(§2) The two-dimensional intestinal stem cell population was plated on a culture dish coated with 1% of Matrigel and then cultured for 2 to 7 days. Thereafter, the culture medium was removed, and washing was performed 1 to 2 times with PBS (Sigma-aldrich), and TE (Invitrogen) was added thereto to detach the cells. After centrifugation, a medium was added to isolate the cells into single cells, and then the number of cells was measured using CountessIII cell counter (Thermo Scientific. Inc.)."}, "[2]": {"tested_on": "two-dimensional intestinal stem cell population", "assay": "Two-dimensional culture of intestinal stem cell population with removal of medium factors or inhibitor treatment", "settings": "for role of essential culture medium factor (stemness, proliferation, death): presence or absence of each factor, FIGS. 7-10; for growth of the two-dimensional intestinal stem cell population: treatment with a WNT inhibitor, morphology, FIG. 8", "method": "as §1\nTo measure viability of a two-dimensional intestinal stem cell population cultured in a culture dish coated with 1% of Matrigel, a kit (LIVE/DEAD Viability/Cytotoxicity Kit, Invitrogen) capable of distinguishing and staining surviving cells and dead cells was used. The surviving cells were stained with calcein-AM, and the dead cells were stained with ethidium homodimer-1. The stained cells were observed through a fluorescence microscope (Olympus).\nas §2\nThe intestinal stem cell population was fixed with 4% of paraformaldehyde (PFA) and stained with 0.02% of crystal violet solution (Sigma-aldrich) at room temperature for 10 minutes. Thereafter, images were acquired after washing three times with sterile water. A colony size of the intestinal stem cell population was analyzed using Image J software (National Institute of Health)."}, "[3]": {"tested_on": "two-dimensional intestinal stem cell population", "assay": "Differentiation into 2.5-dimensional intestinal epithelial cells by air-liquid interface culture, medium factor screening", "settings": "minimal medium composition; FIG. 24", "method": "The intestinal stem cells grown to a density of 70 to 80% were washed 1-2 times with PBS, and then treated with TE in an incubator at 37° C. for 5 to 7 minutes. The intestinal stem cells isolated into single cells were collected and then diluted using the hIO medium. The cells were gathered by centrifugation, supernatant was removed, the intestinal stem cell culture medium was added thereto and sufficiently mixed, and then the number of cells was measured using Countess III cell counter (Thermo Scientific. Inc.). 2.5-3.5×10^5 cells were placed in an insert of 12-transwell plate (Corning) coated with 1% of Matrigel, and cultured in an incubator. After the cell density reached 100%, the culture medium of an upper layer was completely removed, and the culture medium of a lower layer was replaced with a differentiation medium (2 mM of L-glutamine, 1% of Penicillin-Streptomycin, and 15 mM of a HEPES buffer in Advanced DMEM F12) comprising 200 ng/ml of R-spondin 1 (R&D Systems), 100 ng/ml of EGF (R&D Systems), 2.5 µM of Prostaglandin E2 (Sigma-aldrich), 10 μM of SB202190 (Sigma-aldrich), and 10 mM of nicotinamide (Sigma-aldrich). Thereafter, once every 2 days, a surface of the upper layer was washed with the PBS or hIO medium, and the lower layer was replaced with a new differentiation medium and cultured for 8 to 12 days."}}, "note": "Structures can show the parent of a compound that is named as a salt."}
{"molecule": "Cc1cccc(-c2nn(C(=S)Nc3ccccc3)cc2-c2ccnc3ccccc23)n1", "note": "[A-83-01]", "values": [{"measurement": "need for long-term subculturing", "setting": "[1]", "value": "required to more efficiently perform long-term culturing"}]}
{"molecule": "CC(=O)N[C@@H](CS)C(=O)O", "note": "[N-acetylcysteine]", "values": [{"measurement": "need for long-term subculturing", "setting": "[1]", "value": "required to more efficiently perform long-term culturing"}]}
{"molecule": "O=C(NOC[C@H](O)CO)c1ccc(F)c(F)c1Nc1ccc(I)cc1F", "note": "[PD0325901]", "values": [{"measurement": "cell proliferation of the two-dimensional intestinal stem cell population", "setting": "[2]; EGF inhibitor treatment, morphology and live/dead assay, FIG. 9", "value": "cell proliferation is inhibited"}]}
{"molecule": "CCCCC[C@H](O)/C=C/[C@H]1[C@H](O)CC(=O)[C@@H]1C/C=C\\CCCC(=O)O", "note": "[PGE2, prostaglandin E2]", "values": [{"measurement": "role of essential culture medium factor (stemness, proliferation, death)", "setting": "[2]", "value": "modulate the proliferation of the intestinal stem cell population"}, {"measurement": "effect on differentiation into intestinal epithelial cells", "setting": "[3]", "value": "excellent effect on differentiation into intestinal epithelial cells"}]}
{"molecule": "Oc1ccc(-c2nc(-c3ccncc3)c(-c3ccc(F)cc3)[nH]2)cc1", "note": "[SB202190]", "values": [{"measurement": "effect on differentiation into intestinal epithelial cells", "setting": "[3]", "value": "excellent effect on differentiation into intestinal epithelial cells"}, {"measurement": "need for long-term subculturing", "setting": "[1]", "value": "required to more efficiently perform long-term culturing"}]}
{"molecule": "Cc1cc(-c2ccc(CC(=O)Nc3ccc(-c4cccnc4)cc3)cc2)ccn1", "note": "[WNT-C59]", "values": [{"measurement": "growth of the two-dimensional intestinal stem cell population", "setting": "[2]", "value": "growth is inhibited"}]}
{"molecule": "Oc1nc(-c2ccc(C(F)(F)F)cc2)nc2c1CSCC2", "note": "[XAV939]", "values": [{"measurement": "growth of the two-dimensional intestinal stem cell population", "setting": "[2]", "value": "growth is inhibited"}]}
{"molecule": "C[C@@H](N)[C@H]1CC[C@H](C(=O)Nc2ccncc2)CC1", "note": "[Y-27632, R-(+)-trans-4-(1-aminoethyl)-N-(4-pyridyl) cyclohexanecarboxamidedihydrochloridemonohydrate]", "values": [{"measurement": "subculture efficiency", "setting": "[1]", "value": "subculture efficiency is increased"}, {"measurement": "cell engraftment during subculture", "setting": "[1]", "value": "cell engraftment increases"}]}
{"molecule": "NC(=O)c1cccnc1", "note": "[nicotinamide]", "values": [{"measurement": "effect on differentiation into intestinal epithelial cells", "setting": "[3]", "value": "excellent effect on differentiation into intestinal epithelial cells"}, {"measurement": "need for long-term subculturing", "setting": "[1]", "value": "required to more efficiently perform long-term culturing"}]}
{"molecule": "CCCC(CCC)C(=O)O", "note": "[valproic acid]", "values": [{"measurement": "subculture efficiency", "setting": "[1]", "value": "subculture efficiency is increased"}, {"measurement": "cell engraftment during subculture", "setting": "[1]", "value": "cell engraftment increases"}]}
{"molecule": "EGF: receptor tyrosine kinase ligand, epidermal growth factor (NSDSECPLSHDGYCLHDGVCMYIEALDKYACNCVVGYIGERCQYRDLKWWELR; Epidermal growth factor; UniProt P01133 971-1023, looked up)", "values": [{"measurement": "role of essential culture medium factor (stemness, proliferation, death)", "setting": "[2]", "value": "prevent death of intestinal stem cell population and modulate proliferation"}, {"measurement": "effect on differentiation into intestinal epithelial cells", "setting": "[3]", "value": "excellent effect on differentiation into intestinal epithelial cells"}]}
{"molecule": "Jagged-1: Notch activator", "values": [{"measurement": "subculture efficiency", "setting": "[1]", "value": "subculture efficiency is increased"}, {"measurement": "cell engraftment during subculture", "setting": "[1]", "value": "cell engraftment increases"}]}
